Experimental data reported in PubChem BioAssay (NCI).
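Where inhibition never reached the appropriate level, the endpoint shown equals the highest concentration tested. Otherwise, values were interpolated linearly from a five-concentration, 48-hour dose response in 96-well plates. Abbreviation: GI50, concentration required for 50% inhibition of growth. TGI is the concentration that stops growth completely.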

Legend:
Assay in all cases: inhibition of tumour cell growth, NCI panel, 48 h
M19-MEL melanoma = test system: M19-MEL melanoma
DMS 114 small cell lung = test system: DMS 114 small cell lung
XF 498 CNS = test system: XF 498 CNS
DLD-1 colon = test system: DLD-1 colon
SNB-78 CNS = test system: SNB-78 CNS
LXFL 529 NSCLC = test system: LXFL 529 NSCLC
KM20L2 colon = test system: KM20L2 colon
RXF-631 renal = test system: RXF-631 renal
MDA-N = test system: MDA-N

Structure (SMILES)	TGI (M19-MEL melanoma)	TGI (DMS 114 small cell lung)	TGI (XF 498 CNS)	TGI (DLD-1 colon)	TGI (SNB-78 CNS)	TGI (LXFL 529 NSCLC)	TGI (KM20L2 colon)	TGI (RXF-631 renal)	GI50 (MDA-N)	TGI (MDA-N)
CC1=CC(C)(C)N=C2SC(c3ccc(Cl)cc3)=NN12	> 100 µM	> 100 µM	51.8 µM	58.1 µM	> 100 µM	> 100 µM	> 100 µM			
Cc1ccc(NC(=O)/C(CC(=O)c2c[n+](=O)c3ccccc3n2O)=N\NC(=O)C[n+]2ccccc2)cc1	> 100 µM	> 100 µM	> 100 µM	> 100 µM	> 100 µM	> 100 µM	> 100 µM	> 100 µM		
CCc1c2c(nc3cc4c(cc13)OCO4)-c1cc3c(c(=O)n1C2)COC(=O)[C@@]3(CC)OC(=O)CN									< 0.01 µM	2.18 µM
C(=C\c1csnn1)/c1cccnc1	> 100 µM	> 100 µM	> 100 µM	> 100 µM	> 100 µM	> 100 µM	> 100 µM	> 100 µM		
CCCCCCCCCCCC(=O)OCC1OC(n2cc(F)c(=O)[nH]c2=O)C(N)C(OC(=O)CCCCCCCCCCC)C1O (stereo unspecified)	> 100 µM	> 100 µM			> 100 µM	> 100 µM	> 100 µM			
CO[C@@H]1[C@@H](OC2OC(C)C(OC3CC(C)(O)C(OC(=O)CC(C)C)C(C)O3)C(N(C)C)C2O)[C@@H](CC=O)C[C@@H](C)C(=O)/C=C/C2O[C@H]2C[C@@H](C)OC(=O)C[C@H]1OC(C)=O (stereo partly specified)										29.8 µM
COc1ccc2c3c1C(=O)CCC3CO2 (stereo unspecified)	> 100 µM	> 100 µM	> 100 µM	> 100 µM	> 100 µM	> 100 µM	> 100 µM	> 100 µM		
COc1cc2c(c(OC)c1OC)-c1[nH]ncc1CC2	> 100 µM	> 100 µM	> 100 µM	> 100 µM	> 100 µM	> 100 µM	> 100 µM			
O=c1ccccc2cccc(O)c12	> 100 µM	> 100 µM	> 100 µM	> 100 µM	> 100 µM	> 100 µM	> 100 µM	> 100 µM		
O=C1CCCC/C1=C/C=C/c1ccccc1	> 100 µM		> 100 µM	> 100 µM		> 100 µM	> 100 µM	> 100 µM		
CCOC(=O)/N=C(\N)SCc1ccccc1	> 100 µM	> 100 µM	> 100 µM	> 100 µM	> 100 µM	> 100 µM	> 100 µM	> 100 µM		
Nc1ccc(Nc2nc(F)nc(-c3c4ccccc4c4n3CCS4)n2)cc1	40.5 µM	37.7 µM	20.3 µM	34.8 µM	> 100 µM	31.1 µM	33.5 µM	32.3 µM		
O=C1C=C(Nc2ccccc2C(=O)CC(=O)C(=O)Nc2cccc(C(F)(F)F)c2)c2ccccc2C1=O	8.48 µM	35.1 µM	48.7 µM	> 37.6 µM	> 100 µM	71.5 µM	> 100 µM	> 100 µM		26.7 µM
Cc1c(C(=O)/C=C/c2ccc(Cl)cc2)[n+](=O)c2ccccc2n1[O-]	30 µM	15.1 µM		20.4 µM	> 100 µM	22.5 µM	21.4 µM	> 100 µM		
O=C1OC(c2ccc(O)c(-c3ccccc3)c2)(c2ccc(O)c(-c3ccccc3)c2)c2c(Cl)c(Cl)c(Cl)c(Cl)c21										> 100 µM
Nc1ccc2c(c1)C(=O)c1c(F)cccc1-2										> 100 µM
Cn1c(CCC#N)nc2ccc(Br)cc2c1=O		> 100 µM	> 100 µM	> 100 µM		> 100 µM	> 100 µM	> 100 µM		
O=S1(=O)CCN(Cc2ccccn2)CC1										> 100 µM
CC(=O)O[C@@H]1CO[C@H]2O[C@H]3[C@@H](C(C=O)=C[C@H](O)[C@@H]4C5=C(C(C)C)CC[C@]5(C)CC[C@@]34C)[C@@]2(O)C1=O										0.415 µM
O=C(OCCOCBr)c1ccccc1		> 100 µM		> 100 µM	> 100 µM	> 100 µM	> 100 µM	> 100 µM		
O=[N+]([O-])c1ccccc1N=Nc1c(O)[nH]c2ccccc12										> 100 µM
O=C(O)C1C2CC3C(OC(=O)C31)C2Br (stereo unspecified)										> 100 µM
COc1ccc(C(c2ccc(C(C)C)cc(=O)c2O)c2c(O)cc3oc(-c4ccccc4)cc(=O)c3c2O)cc1 (stereo unspecified)	26.7 µM		37 µM	> 100 µM	> 100 µM	71.6 µM	> 100 µM	> 100 µM		
O=C(O)/C(=C/c1ccccc1[N+](=O)[O-])c1ccccc1	> 100 µM	> 100 µM	> 100 µM	> 100 µM	> 100 µM	> 100 µM	> 100 µM	> 100 µM		
COC(=O)c1ccccc1NC(=O)/C(=N\NC(C)(C)C)C(C#N)c1nc(-c2ccc([N+](=O)[O-])cc2)cs1 (stereo unspecified)										> 100 µM
